US20100197584A1, “USE OF CURCUMIN TO BLOCK BRAIN TUMOR FORMATION IN MICE” (Research Foundations of the City University of- New York, priority 2007, published 2010)

Tested on: A549 (human lung cancer) cells
Experiment: Caspase-3/7 assay in A549 cells
Type: cell-based
Conditions: 20 μM and 50 μM, 48 h (FIG. 5)
Protocol: Cells. B16F10 (mouse melanoma), GL261 (mouse glioma), HOG (human oligodendroglioma), A549 (human lung cancer), and […] (mouse neuroblastoma) cells were cultured separately in DMEM containing 10% (v/v) fetal bovine serum and 1% (v/v) penicillin-streptomycin (PS) and allowed to grow to 40% confluence in a 96-well plate. Curcumin Treatment. Two hours before drug treatment, the medium in each well was replaced with 200 μl Neurobasal medium supplemented with 2% (v/v) B27 and 1% (v/v) PS (Drug-treatment Medium). A stock solution (40 mM) of curcumin was prepared in sterile dimethyl sulfoxide (DMSO) (Example 1). Through serial dilution of each stock solution in Drug-treatment Medium, the following concentrations were obtained: 20 μM and 50 μM (for caspase 3/7 assays) or 25 μM and 50 μM (for MTT assays). Drug-treatment Medium in each well was aspirated, and a drug solution of each concentration or carrier-containing medium (control) was added to triplicate wells of cells (50 μl/well). […] Additionally, the background absorbance was determined from parallel wells containing only the Drug-treatment Medium plus a particular concentration of the drug (no cells). […] Fluorescence in each well was measured using the FLx 800 plate reader (Bio-Tek Instruments, Winooski, Vt.) set at 485/20 nm excitation and 528/20 nm emission wavelengths and the sensitivity of 70. […]

**Q.** `COc1cc(/C=C/C(=O)CC(=O)/C=C/c2ccc(O)c(OC)c2)ccc1O` [curcumin] was tested. Which caspase-3/7 activity did it give?
**A.** increased
